Counter-ions that a name gives are not always drawn.
Tests used:
[1] = biological target: T1, human FXa (Homo sapiens, UniProt P00742); assay: Determination of human FXa-inhibiting effect (IC50 value), chromogenic substrate S-2222; format: biochemical; settings: substrate S-2222, absorbance at 405 nm, room temperature
T1 construct: purchased Enzyme Research Labolatories, Inc
Source text: Determination of Human FXa-Inhibiting Effect (IC50 Value):
As a control, Tris buffer was used in place of the test compound.

T1 sequence (P00742 235-488 limits assumed): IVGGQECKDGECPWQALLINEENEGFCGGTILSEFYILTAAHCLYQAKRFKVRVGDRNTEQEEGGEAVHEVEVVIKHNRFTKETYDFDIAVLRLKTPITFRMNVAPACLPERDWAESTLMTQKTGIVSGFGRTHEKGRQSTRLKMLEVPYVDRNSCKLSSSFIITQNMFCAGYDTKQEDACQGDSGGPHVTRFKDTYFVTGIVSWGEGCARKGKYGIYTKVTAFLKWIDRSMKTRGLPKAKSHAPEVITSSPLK
T1 sequence (P00742 41-179 partner limits assumed): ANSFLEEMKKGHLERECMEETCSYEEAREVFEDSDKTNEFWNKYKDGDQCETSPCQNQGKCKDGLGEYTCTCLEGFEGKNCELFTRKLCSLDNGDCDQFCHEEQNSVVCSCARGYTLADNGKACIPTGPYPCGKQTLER

Row | Compound | melting point | IC50 [1]
1 | CN1CCc2nc(C(=O)N[C@@H]3C[C@@H](C(=O)N(C)C)CC[C@@H]3NC(=S)C(=O)Nc3ccc(F)cn3)sc2C1 (hydrate or solvate) | 176 to 179 °C (dec.) | 
2 | Cc1nnc([C@H]2CC[C@H](NC(=O)C(=O)Nc3ccc(Cl)cn3)[C@H](NC(=O)c3nc4c(s3)CN(C)CC4)C2)o1 [Ex. 384, N^1-(5-chloropyridin-2-yl)-N^2-[(1S,2R,4S)-2-{[(5-methyl-4,5,6,7-tetrahydrothiazolo[5,4-c]pyridin-2-yl)carbonyl]amino}-4-(5-methyl-1,3,4-oxadiazol-2-yl)cyclohexyl]ethanediamide hydrochloride] |  | 1 nM
3 | CN1CCc2nc(C(=O)N[C@@H]3C[C@@H](c4nnco4)CC[C@@H]3NC(=O)C(=O)Nc3ccc(Cl)cn3)sc2C1 [Ex. 385, N^1-(5-chloropyridin-2-yl)-N^2-[(1S,2R,4S)-2-{[(5-methyl-4,5,6,7-tetrahydrothiazolo[5,4-c]pyridin-2-yl)carbonyl]amino}-4-(1,3,4-oxadiazol-2-yl)cyclohexyl]ethanediamide] |  | 1.3 nM
4 | CN1CCc2nc(C(=O)N[C@@H]3C[C@@H](n4cnnc4)CC[C@@H]3NC(=O)C(=O)Nc3ccc(Cl)cn3)sc2C1 [Ex. 394, N^1-(5-chloropyridin-2-yl)-N^2-(1S,2R,4S)-2-{[(5-methyl-4,5,6,7-tetrahydrothiazolo[5,4-c]pyridin-2-yl)carbonyl]amino}-4-(4H-1,2,4-triazol-4-yl)cyclohexyl)ethanediamide hydrochloride] |  | 1.1 nM

Results, then the molecule that gave them:

Row | melting point | IC50 [1] | Compound
5 | 244 to 249 °C |  | CN1CCc2nc(C(=O)N[C@@H]3CCS(=O)(=O)C[C@H]3NC(=O)c3cc4cc(F)ccc4[nH]3)sc2C1 (relative stereo) (as salt: hydrochloride) [Example 183, N-((3R*,4R*)-3-{[(5-Fluoroindol-2-yl)carbonyl]amino}-1,1-dioxohexahydro-1-thiopyran-4-yl)-5-methyl-4,5,6,7-tetrahydrothiazolo[5,4-c]pyridine-2-carboxamide hydrochloride]
6 |  | 0.72 nM | Cc1nnc([C@H]2CC[C@H](NC(=O)C(=O)Nc3ccc(Cl)s3)[C@H](NC(=O)c3nc4c(s3)CN(C)CC4)C2)o1 [Ex. 395, N^1-(5-chloro-2-thienyl)-N^2-((1S,2R,4S)-4-(5-methyl-1,3,4-oxadiazol-2-yl)-2-{[(5-methyl-4,5,6,7-tetrahydrothiazolo[5,4-c]pyridin-2-yl)carbonyl]amino}cyclohexyl)ethanediamide citric acid salt]
7 |  | 1.1 nM | Cc1nnc([C@H]2CC[C@H](NC(=O)C(=O)Nc3ccc(Br)cn3)[C@H](NC(=O)c3nc4c(s3)CN(C)CC4)C2)o1 [Ex. 396, N^1-(5-bromo-2-pyridinyl)-N^2-((1S,2R,4S)-4-(5-methyl-1,3,4-oxadiazol-2-yl)-2-{[(5-methyl-4,5,6,7-tetrahydrothiazolo[5,4-c]pyridin-2-yl)carbonyl]amino}cyclohexyl)ethanediamide hydrochloride]
8 |  | 1.1 nM | C#Cc1ccc(NC(=O)C(=O)N[C@H]2CC[C@H](c3nnc(C)o3)C[C@H]2NC(=O)c2nc3c(s2)CN(C)CC3)nc1 [Ex. 402, N^1-(5-ethynylpyridin-2-yl)-N^2-((1S,2R,4S)-4-(5-methyl-1,3,4-oxadiazol-2-yl)-2-{[(5-methyl-4,5,6,7-tetrahydrothiazolo[5,4-c]pyridin-2-yl)carbonyl]amino}cyclohexyl)ethanediamide]
9 |  | 1 nM | CN1CCc2nc(C(=O)N[C@@H]3C[C@@H](n4cccc4)CC[C@@H]3NC(=O)C(=O)Nc3ccc(Cl)cn3)sc2C1 [Ex. 413, N^1-(5-chloropyridin-2-yl)-N^2-[(1S,2R,4S)-2-{[(5-methyl-4,5,6,7-tetrahydrothiazolo[5,4-c]pyridin-2-yl)carbonyl]amino}-4-(1H-pyrrol-1-yl)cyclohexyl]ethanediamide hydrochloride]
